The source of these data is patent publication US11633370B2, “Use of scavengers of reactive gamma-ketoaldehydes to extend cell lifespan and healthspan” (Vanderbilt University, priority 2016, dated 2023).

The test relates to VC199 SIR-2.1 mutants. Kind of test: Oxygen consumption rate of whole worms, VC199. In kind it is in vivo, C. elegans. The conditions noted are these: whole worms over several days; p>0.05. From the text:
Mitochondria lie at the center of aging biology, playing crucial roles in energy production, carbon substrate metabolism, apoptosis regulation, and redox balance and signaling. Since sirtuins play a major role in regulating mitochondrial function, the present inventors next wanted to investigate whether SA was exerting any of its effects via protection of mitochondrial processes. To investigate SA's effects on mitochondrial respiration, the present inventors administered SA to WT N2 (FIG. 5A) and non-functional SIR-2.1 mutant worms (FIG. 5B) and measured oxygen consumption rate (OCR) in whole worms over several days. […] The present inventors also examined the effect of SA treatment on mitochondrial DNA (mtDNA) integrity.
Oxygen consumption rate for whole C. elegans was measured using a Seahorse Bioscience XF^e96 Analyzer. Worms were harvested from Day 0, 2, and 15 colonies maintained on FUDR containing SA-OP50-seeded NGM plates by washing in M9 medium, followed by floatation on an ice-cold 60% w/v sucrose gradient to segregate clean bacteria-free adult worms from bacterial debris. Worms were seeded at 1,000 worms/well in M9. After 20 min equilibration, a 2-min measurement was performed to obtain basal OCR for all experimental conditions and strains.

Molecules are shown by their SMILES.

In the case of `NCc1ccccc1O` [SA, salicylamine], the “mitochondrial oxygen consumption rate (OCR)” value is given as “no effect”.
